Experimental data: ChEMBL document CHEMBL5233285, “Recent Update on the Development of PCSK9 Inhibitors for Hypercholesterolemia Treatment” (J Med Chem, 2022)

Experiments:
[1] = target: T1, Proprotein convertase subtilisin/kexin type 9 (Homo sapiens, UniProt Q8NBP7); assay: Inhibition of PCSK9 (unknown origin)
[2] = target: T2, PCSK9/LDLR (Homo sapiens, UniProt Q8NBP7); assay: Inhibition of PCSK9-LDLR (unknown origin) protein-protein interaction; assay type: protein assay
[3] = target: T1, Proprotein convertase subtilisin/kexin type 9; assay: Inhibition of PCSK9 in human HepG2 cells assessed as restoration of LDLR; assay type: cell-based
[4] = target: T1, Proprotein convertase subtilisin/kexin type 9; assay: Inhibition of PCSK9 in human HepG2 cells assessed as increase in LDL uptake; assay type: cell-based
[5] = target: T1, Proprotein convertase subtilisin/kexin type 9; assay: Inhibition of PCSK9 in human HepG2 cells assessed as increase in LDL uptake at 10 uM; assay type: cell-based
[6] = target: T1, Proprotein convertase subtilisin/kexin type 9; assay: Binding affinity to human PCSK9
[7] = target: Proprotein convertase subtilisin/kexin type 9 (Mus musculus, UniProt Q80W65); assay: Binding affinity to mouse PCSK9
[8] = target: T2, PCSK9/LDLR; assay: Inhibition of PCSK9-LDLR protein-protein interaction in human HepG2 cells assessed as increase in LDL uptake; assay type: cell-based
[9] = test system: Mus musculus; assay: Hypocholesterolemic activity in C57BL/6 mouse assessed as increase in LDLR level at 30 mg/kg; assay type: functional
[10] = test system: Mus musculus; assay: Hypocholesterolemic activity in C57BL/6 mouse assessed as reduction in TC level at 30 mg/kg; assay type: functional; set-up: scale not given: the % may be the effect or the level left

T1 sequence (Q8NBP7 31-152 limits assumed): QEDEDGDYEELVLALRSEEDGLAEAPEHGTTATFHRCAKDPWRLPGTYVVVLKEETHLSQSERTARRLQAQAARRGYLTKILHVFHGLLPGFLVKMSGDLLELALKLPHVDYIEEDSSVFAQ
T1 sequence (Q8NBP7 153-692 limits assumed): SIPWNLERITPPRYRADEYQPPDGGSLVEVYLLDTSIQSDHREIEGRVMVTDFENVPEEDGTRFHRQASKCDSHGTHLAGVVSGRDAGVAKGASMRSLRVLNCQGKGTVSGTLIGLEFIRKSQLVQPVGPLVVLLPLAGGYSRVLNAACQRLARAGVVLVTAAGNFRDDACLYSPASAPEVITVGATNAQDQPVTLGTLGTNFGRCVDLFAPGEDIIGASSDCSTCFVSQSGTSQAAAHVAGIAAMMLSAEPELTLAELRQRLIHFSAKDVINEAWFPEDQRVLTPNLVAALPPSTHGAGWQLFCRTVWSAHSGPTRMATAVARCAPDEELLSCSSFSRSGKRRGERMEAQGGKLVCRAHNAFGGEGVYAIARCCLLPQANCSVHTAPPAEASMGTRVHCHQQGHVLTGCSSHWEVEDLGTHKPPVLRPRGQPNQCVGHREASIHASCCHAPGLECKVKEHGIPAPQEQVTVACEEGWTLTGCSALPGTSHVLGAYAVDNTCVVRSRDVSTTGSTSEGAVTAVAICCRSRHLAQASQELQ
T2 sequence (Q8NBP7 31-152 limits assumed): as the sequence (Q8NBP7 31-152 limits assumed) above
T2 sequence (Q8NBP7 153-692 limits assumed): as the sequence (Q8NBP7 153-692 limits assumed) above
T2 sequence (P01130 22-860 partner limits assumed): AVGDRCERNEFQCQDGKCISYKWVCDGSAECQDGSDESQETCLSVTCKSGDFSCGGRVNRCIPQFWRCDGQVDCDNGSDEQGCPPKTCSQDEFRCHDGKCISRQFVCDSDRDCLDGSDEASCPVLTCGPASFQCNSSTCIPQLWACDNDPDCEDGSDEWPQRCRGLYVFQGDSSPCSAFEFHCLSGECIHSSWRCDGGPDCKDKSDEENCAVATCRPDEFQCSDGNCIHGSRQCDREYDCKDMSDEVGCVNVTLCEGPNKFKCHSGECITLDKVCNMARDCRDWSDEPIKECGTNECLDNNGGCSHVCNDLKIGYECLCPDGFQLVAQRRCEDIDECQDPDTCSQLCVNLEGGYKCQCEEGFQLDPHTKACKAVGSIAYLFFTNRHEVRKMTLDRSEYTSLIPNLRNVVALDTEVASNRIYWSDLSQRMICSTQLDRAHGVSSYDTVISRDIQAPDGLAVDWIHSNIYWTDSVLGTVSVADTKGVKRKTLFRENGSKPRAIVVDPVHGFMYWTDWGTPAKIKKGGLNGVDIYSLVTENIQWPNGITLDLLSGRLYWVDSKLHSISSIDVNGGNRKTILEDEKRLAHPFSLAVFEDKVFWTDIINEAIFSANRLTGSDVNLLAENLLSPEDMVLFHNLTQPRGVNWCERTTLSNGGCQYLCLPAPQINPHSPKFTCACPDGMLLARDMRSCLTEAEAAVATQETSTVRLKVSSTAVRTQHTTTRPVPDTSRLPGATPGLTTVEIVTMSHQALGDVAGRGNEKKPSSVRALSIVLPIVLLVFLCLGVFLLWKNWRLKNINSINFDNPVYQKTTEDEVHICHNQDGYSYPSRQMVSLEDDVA
Proprotein convertase subtilisin/kexin type 9 (Mus musculus, UniProt Q80W65), sequence (Q80W65 35-155 limits assumed): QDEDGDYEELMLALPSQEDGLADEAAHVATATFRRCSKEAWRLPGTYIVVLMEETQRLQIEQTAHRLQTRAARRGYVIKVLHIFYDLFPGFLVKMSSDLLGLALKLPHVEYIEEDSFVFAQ
Proprotein convertase subtilisin/kexin type 9 (Mus musculus, UniProt Q80W65), sequence (Q80W65 156-694 limits assumed): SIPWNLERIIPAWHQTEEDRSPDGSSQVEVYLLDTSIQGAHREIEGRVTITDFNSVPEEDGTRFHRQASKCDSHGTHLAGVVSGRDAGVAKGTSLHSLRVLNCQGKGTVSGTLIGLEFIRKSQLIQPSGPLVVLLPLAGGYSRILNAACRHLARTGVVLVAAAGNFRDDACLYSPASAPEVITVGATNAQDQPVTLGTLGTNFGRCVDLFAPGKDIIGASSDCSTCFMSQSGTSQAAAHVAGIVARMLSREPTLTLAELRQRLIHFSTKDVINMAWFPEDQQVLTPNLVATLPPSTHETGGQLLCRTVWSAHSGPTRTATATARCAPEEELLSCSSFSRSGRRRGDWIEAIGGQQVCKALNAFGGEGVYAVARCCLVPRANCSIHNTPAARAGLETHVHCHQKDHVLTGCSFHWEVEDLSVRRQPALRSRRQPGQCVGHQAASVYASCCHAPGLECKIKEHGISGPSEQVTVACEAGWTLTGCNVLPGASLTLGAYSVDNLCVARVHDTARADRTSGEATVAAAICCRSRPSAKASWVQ

| IC50 [1] [nM] | IC50 [2] [nM] | EC50 [3] [nM] | EC50 [4] [nM] | inhibition [5] [%] | Kd [6] [nM] | Kd [7] [nM] | EC50 [8] [nM] | Compound | Activity [9] [%] | Activity [10] [%] |
| --- | --- | --- | --- | --- | --- | --- | --- | --- | --- | --- |
| 230 |  |  |  |  |  |  |  | CC(=O)N[C@H](CSCc1cn(CCCCCC(=O)NCCOCCOCCOCCOCCOCCOCCOCCOCCOCCOCCC(=O)NCCCC[C@H](NC(=O)COCCOCCOCCOCCOCCOCCOCCOCCOCCOCCNC(=O)C(N)CCCCn2cc(CSC[C@@H](NC(C)=O)C(=O)N[C@H](C(=O)N[C@H](C(=O)N[C@@H](Cc3ccccc3)C(=O)N[C@H](C(=O)N[C@@H](CO)C(=O)N[C@@H](Cc3c[nH]c4ccccc34)C(=O)N[C@@H](CCC(=O)O)C(=O)N[C@@H](CCC(=O)O)C(=O)N[C@@H](Cc3ccc(O)cc3)C(=O)N[C@@H](CC(C)C)C(=O)N[C@@H](CC(=O)O)C(=O)N[C@@H](Cc3c[nH]c4ccccc34)C(=O)N[C@H](C(=O)N[C@@H](CCCNC(=N)N)C(=O)N[C@@H](CCCNC(=N)N)C(=O)NCC(=O)O)C(C)C)[C@@H](C)O)C(C)C)[C@@H](C)O)nn2)C(=O)NCC(=O)N[C@@H](CCCNC(=N)N)C(=O)N[C@@H](CCCNC(=N)N)C(=O)N[C@@H](CCCCN)C(=O)N[C@@H](Cc2c[nH]c3ccccc23)C(N)=O)nn1)C(=O)N[C@H](C(=O)N[C@H](C(=O)N[C@@H](Cc1ccccc1)C(=O)N[C@H](C(=O)N[C@@H](CO)C(=O)N[C@@H](Cc1c[nH]c2ccccc12)C(=O)N[C@@H](CCC(=O)O)C(=O)N[C@@H](CCC(=O)O)C(=O)N[C@@H](Cc1ccc(O)cc1)C(=O)N[C@@H](CC(C)C)C(=O)N[C@@H](CC(=O)O)C(=O)N[C@@H](Cc1c[nH]c2ccccc12)C(=O)N[C@H](C(=O)N[C@@H](CCCNC(=N)N)C(=O)N[C@@H](CCCNC(=N)N)C(=O)NCC(=O)O)C(C)C)[C@@H](C)O)C(C)C)[C@@H](C)O (stereo partly specified) |  |  |
|  | 800 | 5000 | 6000 | 56.5 |  |  |  | CC(=O)N[C@H](C(=O)N[C@H](C(=O)N[C@@H](Cc1ccccc1)C(=O)N[C@H](C(=O)N[C@@H](CO)C(=O)N[C@@H](Cc1c[nH]c2ccccc12)C(=O)N[C@@H](CCC(=O)O)C(=O)N[C@@H](CCC(=O)O)C(=O)N[C@@H](Cc1ccc(O)cc1)C(=O)N[C@@H](CC(C)C)C(=O)N[C@@H](CC(=O)O)C(=O)N[C@@H](Cc1c[nH]c2ccccc12)C(=O)N[C@H](C(N)=O)C(C)C)[C@@H](C)O)C(C)C)[C@@H](C)O |  |  |
|  | 2 |  |  |  | 6.1 | 21 | 170 | CCNC(=O)[C@@H]1CSCC(=O)N[C@@H](Cc2ccccc2)C(=O)N[C@@H](C(C)C)C(=O)N2CCC[C@H]2C(=O)N[C@@H]([C@@H](C)O)C(=O)N[C@@H]([C@@H](C)O)C(=O)N[C@@H](Cc2ccc(-c3ccccc3)cc2)C(=O)N(C)[C@@H](C)C(=O)N[C@@H](Cc2ccc(-c3ccccc3)cc2)C(=O)N(C)[C@@H](C)C(=O)N[C@@H](CCC(=O)O)C(=O)N[C@@H](C)C(=O)N2CCC[C@H]2C(=O)N1 | 90 | 43 |
